From patent US10583115B2, “Modulators of 14-3-3 functionality and uses thereof” (University of South Australia, priority 2014, dated 2020)
Entries after “also recorded” stand apart in the source; their conditions may differ. Values belong to the compound of their own block, whether it stands above or below them.

Tests used:
[1] = tested on: incisional wounds of dorsal skin; experiment: Incisional wound healing model; assay type: in vivo, mice
Experimental: A murine model of wound healing was utilised. In this model, 2×1 cm full thickness wounds were created in the dorsal skin. Wound healing was monitored using cohorts of mice humanely killed at 3, 5, 7 and 14 days post-wounding. Re-epithelialization was quantified histologically, by measuring the distance between epithelial margins sectioned in the transverse plane (Ansell D. M. et al. (2014) Wound Rep Reg 22: 281-287).
Incisional wounding was carried out as we have previously detailed (Lees et al. (2013) The Journal of investigative dermatology 133, 1330-1339). Briefly, two full-thickness 1 cm incisions were created on the dorsal skin of 12 week old female mice and allowed to heal. RB-11 (10 μg per mouse), 4-hydroxytamoxifen (50 μg per mouse) or vehicle was applied in a total volume of 20 μl to the edge of each wound using a micropipette and allowed to absorb into the skin. At the appropriate time point (2, 5, 7, 14 and 21 days) following incisional wounding, mice were humanely killed and tissues harvested. From each mouse, one wound was completed excised and fixed in 4% formalin overnight at 4° C. Following fixation, the wound was carefully bisected at the middle across the wound, processed and embedded in paraffin for histological and immunofluorescence analysis. Wound widths were measured on scanned images of H&E stained sections using NDPView slide scanning and image quantification software. The remaining wound was bisected across the wound, snap-frozen and processed for gene expression analysis.
14-3-3ζ-deficient and wild-type mice were subjected to the incisional wounding protocol followed by treatment with vehicle or RB-11 (5× daily topical treatments of 11.5 μg). […] Slides were optically scanned using a Nanozoomer slide scanner (Hamamatsu, Japan) and the wound gap measured using Imagescope software (Leica Biosystems, Germany). Values were plotted on a box and whisker plot and statistical significant assessed using the Mann-Whitney test together with Dunnett's post hoc test.

A549 cells [2] = experiment: A549 caspase-3 activation (NucView, flow cytometry); assay type: cell-based, human; details: 48 hrs treatment
Experimental: (§1) Jurkat cells were routinely set up in apoptosis assays at 2×10^5/ml in RPMI with 0.5% FBS. After treatment, cells were stained either with 200 nM TMRE, 5 μl/ml NucView™ (Biotium), or Annexin V-FITC (Roche) for 15 mins prior to analysis by flow cytometry. Forward- and side-scatter properties were used to exclude debris and a ‘viable’ gate corresponding to the intact, PI negative cell population was used for fluorescence analysis. For A549, cells at 90% confluency were treated with RB compounds for 48 hrs in DMEM with 0.5% FBS. After treatment, cells were released with trypsin and then stained with NucView™ prior to analysis by flow cytometry.

A549 cells [3] = experiment: A549 cell viability by MTS assay; assay type: cell-based, human; details: 48 hrs treatment
Experimental: A549 cells (2500/well) were plated in 96 well trays in DMEM with 0.5% FBS and cultured at 37° C. with 5% CO2 overnight. The following day RB compounds were added and cells incubated for a further 48 hours prior to removal of the medium and replacement with MTS reagent diluted 1:6 in Dulbecco's PBS. The cells were incubated at 37° C. for a further 4 hours and the conversion of MTS to the coloured formazan compound determined by measurement of absorbance at 490 nm.

[4] = tested on: 14-3-3ζ KO dermal fibroblasts; experiment: Collagen remodeling assay and cell morphology, 14-3-3ζ KO dermal fibroblasts; assay type: cell-based, mice; details: 10 μM
Experimental: (§2) Rat-tail tendon collagen was prepared by extraction with 0.5 M acetic acid to a concentration of ˜2 mg/ml. 8×10^4 cells/ml WT or 14-3-3ζ KO dermal fibroblasts (labeled with either eGFP or mCherry) were embedded in this three-dimensional collagen 1 matrix and incubated in DMEM with 10% FCS and 10 mM L-Glutamine at 37° C. and 5% CO2. Detached polymerized matrix (2.5 ml) was allowed to contract for 11 days. During contraction, matrices were either left untreated or incubated with 10 μM RB-11. Media was changed on day 1 and on day 6. To calculate contraction rates and obtain information on cell morphology matrices were imaged every second day in phase contrast on a Leica DMIL LED inverted microscope with either a 4×/NA0.10 HI PLAN or a 10×/NA0.22 HI PLAN I air objective.
(§3) Measuring the mean diameter of three matrices and normalizing the diameter to day 1 determined contraction rates. Cell morphology was described by manually counting the number of cell protrusions/cell and the number of blebbing cells.
To determine the circularity of cells images were processed in ImageJ (NIH) according to following routine. […]
10^6 14-3-3ζ-deficient or wild-type dermal fibroblasts were embedded in 2 mg/mL % rat tail collagen plugs made with or without 10 μM RB-11. […] Collagen plugs were photographed on days 2, 6 and 12 and the area of the image occupied by the collage plug measured.

WT dermal fibroblasts = experiment: Collagen remodeling assay and cell morphology, wild-type dermal fibroblasts; assay type: cell-based, mice; details: 10 μM
Experimental: as §2, §3
To determine the circularity of cells images were processed in ImageJ (NIH) according to following routine. Images were converted to 8 Bit images and cropped to an image size equivalent to […]. Grey values were thresholded to select cells. The ‘analyze particles’ function was used to determine circularity of cells. Circularity values range from 0 to 1 with ‘0’ representing rod-shaped cells and ‘1’ representing perfectly circular cells.
10^6 14-3-3ζ-deficient or wild-type dermal fibroblasts were embedded in 2 mg/mL % rat tail collagen plugs made with or without 10 μM RB-11. The plugs were maintained in DMEM containing 10% foetal bovine serum in a humidified incubator at 37° C. Collagen plugs were photographed on days 2, 6 and 12 and the area of the image occupied by the collage plug measured.

Jurkat cells = experiment: Jurkat apoptosis assays (TMRE, caspase 3, Annexin V, viability by flow cytometry); assay type: cell-based
Experimental: as §1

[5] = tested on: Jurkat cells over-expressing Bcl-2; experiment: Apoptosis assays in Jurkat cells over-expressing Bcl-2; assay type: cell-based; details: 5 μM, 20 hours
Experimental: Jurkat cells were obtained from the ATCC and A549 cell lines from ECACC. Jurkat cells were routinely cultured in RPMI with 10% FBS and A549 cells in DMEM with 10% FBS at 37° C. with 5% CO2 Jurkat Bcl-2 cells were generated by lentiviral transduction using a third generation lentiviral construct, as described previously (10) containing a Bcl-2α-IRES-IL2Rα encoding cassette. Transduced cells were FACS sorted for expression of IL2Rα using anti-CD25-PE (BD Pharmingen #555433) to enrich for Bcl-2 over-expressing cells and protein expression was further confirmed by immunoblotting with anti-Bcl-2 antibody (#610538; BD Transduction Laboratories, data not shown).
as §1

recombinant 14-3-3ζ [6] = target: T1, recombinant 14-3-3ζ (Homo sapiens, UniProt P63104); experiment: 14-3-3 phosphorylation assay (PKA, in vitro); assay type: biochemical
T1 construct: 0.5 μg of purified recombinant 14-3-3
T1 sequence (P63104 1-245): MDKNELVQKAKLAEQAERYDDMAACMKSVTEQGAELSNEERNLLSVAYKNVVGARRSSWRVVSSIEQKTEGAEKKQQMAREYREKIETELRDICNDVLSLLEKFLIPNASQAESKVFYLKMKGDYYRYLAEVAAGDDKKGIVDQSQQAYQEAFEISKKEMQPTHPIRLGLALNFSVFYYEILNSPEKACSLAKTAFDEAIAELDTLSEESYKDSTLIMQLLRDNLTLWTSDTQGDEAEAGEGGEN
Experimental: (§4) Substrate 14-3-3 (0.5 μg of purified recombinant 14-3-3) was added to 15 μl reaction mixture comprising 0.2 U of the PKA catalytic subunit, in the presence or absence of compounds (delivered in 0.1% v/v ethanol) in PKA reaction buffer (10 mM Tris-HCl pH 7.4, 15 mM MgCl2, 3 mM DTT) containing 25 μM ATP and 0.3 μCi [^32P] 7-ATP). Reactions were incubated at 37° C. for 15 min. After incubation, reactions were separated on 12.5% SDS-PAGE, coomassie stained and 14-3-3 phosphorylation analysed by autoradiography.

recombinant 14-3-3ζ [7] = experiment: 14-3-3 phosphorylation assay (PKA, in vitro); assay type: biochemical; details: S58A versus Wt recombinant 14-3-3
Experimental: as §4

[8] = reported value; cited from earlier work
A549 xenograft = A549 xenograft study; assay type: in vivo, BALB/c nude mice
Experimental: All experimental procedures involving animals were conducted in accordance with the NHMRC Australian Code for the Care and Use of Animals for Scientific Purposes and with approval by the institutional animal ethics committee. BALB/c nude mice (Nu/Nu, female, 5-6 weeks old) were purchased from the Animal Resources Centre (Perth, Wash.) and maintained under pathogen-free conditions. A549 cells (5×106) in 100 μl PBS were injected subcutaneously into the flanks of the mice and the resulting tumour were measured using digital callipers. The tumour volume was calculated using the following formula: Volume=(larger diameter)×(small diameter)2/2. Once the tumours had reached 100 mm3, mice were divided into groups of 9 and each group administered either RB-012 in saline, FTY720 in saline or saline alone by intraperitoneal injection daily. Initially RB-12 and FTY720 were administered at 2 mg/kg for two days and then the dose was increased to 5 mg/kg for two weeks after which RB-012 was increased to 10 mg/kg but FTY720 maintained at 5 mg/kg. During this dosing regime tumours were monitored twice a week. Differences between samples were analysed using 2 way Anova and statistical significance was accepted at P<0.05.
To assess the effect of RB-012 on human lung cancer growth in vivo, A549 cells were implanted subcutaneously on the flanks of Balb/C nude mice and tumours allowed to develop until they had reached a volume of 100 mm^3. RB-012 or saline was then administered daily to assess the effect on tumour growth. Initially, to reduce the cramping and encourage tolerance, 2 mg/kg RB-012 was administered for two days and then the dose was increased to 5 mg/kg daily for two weeks. Tumour volume was monitored twice a week and after two weeks of treatment mice administered RB-012 had tumours that were 20% smaller than mice receiving saline. […] The tumours on the RB-012 treated mice continued to grow more slowly and after the third week were 30% smaller than those of saline-treated mice (P<0.05). […] Therefore we were unable to increase FTY720 dosing to match RB-012.

IC50 (A549 cells [3]; Homo sapiens, A549): 7 µM
EC50 (Jurkat cells; Homo sapiens, Jurkat, 5 h, read-out: ED50 for apoptosis induction (initial activation of caspase-3)): 2 µM
SMILES: CCCCCCCCc1ccc(CC[N+]2(C)CCCC2)cc1 [RB-011]
rate of re-epithelialization ([1]; WT mice, topical 10 μg [25 nmol] once daily for 7 days): increased the rate of re-epithelialization
collagen production around wound margins (SHG) ([1]; WT mice, topical 10 μg once daily for 7 days): elevated collagen production
wound healing (wound width) ([1]; wild-type mice, 5× daily topical treatments of 11.5 μg, day 5 following wounding): hastened wound healing
caspase-3 activation (A549 cells [2]): induce caspase activation
cell viability / growth and survival (MTS), in words (A549 cells [3]): inhibited
cell morphology by circularity analysis [4]: no further change in the morphology
ability to remodel a collagen plug ([4]; compared to wild type fibroblasts): reduced ability to remodel a collagen plug
cell morphology by circularity analysis (WT dermal fibroblasts): rounded morphology
cell morphology in 3D collagen organotypic matrices (live-cell imaging) (WT dermal fibroblasts): contracted morphology
collagen remodeling ability (contraction of collagen plug/matrix) (WT dermal fibroblasts; listed as RB-11): unable to remodel the collagen plug; also recorded: significantly reduced collagen remodeling ability
ED50 for apoptosis induction, in words (Jurkat cells): low micromolar range
Annexin V presentation (Jurkat cells; 5 μM, 24 hours): Annexin V presentation
cell viability (Jurkat cells; 5 μM, 24 hours): loss of viability
apoptosis as determined by caspase-3 activation (Jurkat cells; 5 μM, within 5 hours): readily able to activate apoptosis

SMILES: CCCCCCCCCCCCCCCC[N+](C)(C)C.[Br-] [CTAB, cetyltrimethylammonium bromide]
cell death in Bcl-2 over-expressing cells [5]: protected from CTAB-induced cell death
concentration above which 14-3-3 phosphorylation plateaus (recombinant 14-3-3ζ [6]; dose-response study): above 25 μM
concentrations able to induce 14-3-3 phosphorylation (recombinant 14-3-3ζ [6]; dose-response study): low micromolar concentrations
concentration above which phosphorylation of 14-3-3 increased dramatically (recombinant 14-3-3ζ [6]; potentially non-specific protein denaturation): above 75 μM
rendering 14-3-3 phosphorylatable (phosphorylation of 14-3-3 by PKA in vitro) (recombinant 14-3-3ζ [6]; recombinant 14-3-3 and PKA catalytic subunit): dose-dependent increase in 14-3-3 phosphorylation
phosphorylation site of 14-3-3ζ revealed (recombinant 14-3-3ζ [7]): Ser58
critical micelle concentration [8]: 0.92 mM
caspase-3 activation (Jurkat cells; 5 μM, 20 hours): induce caspase-3 activation

SMILES: CCCCCCCCc1ccc(CCC(N)(CO)CO)cc1 [FTY720]
tumour size versus saline (A549 xenograft; 5 mg/kg daily i.p.): no reduction in tumour size; also recorded: did not elicit a reduction in tumour growth
adverse effects at 10 mg/kg (A549 xenograft; 10 mg/kg): severe cramping with cardiac arrhythmia, with fatality in some cases
tolerability at 10 mg/kg (A549 xenograft; mouse, in vivo): not tolerated
